≈ marks a conversion by molar mass, not a printed value. Read-outs that look alike come from different tables or passages of the source.
Assays:
[1] = tested on: MDA-MB-435 breast carcinoma; assay: Anchorage Dependent Growth Monolayer Assay (ADGMA), MTS readout; type: cell-based; conditions: average ± S.D., 3-day exposure, A490
Excerpt: As indicated above, all of the compounds of formula I, and their corresponding pharmaceutically acceptable acid addition salts, are anti-tumor agents and are, therefore, useful in inhibiting the growth of various lymphomas, sarcomas, carcinomas, myelomas, and leukemia cell lines. […] This assay was adapted from the 60 cell line assay used by the National Cancer Institute (NCI) with the following modifications: 1) a single cell line representative for the important tumor type, viz., MDA-MB-435 breast carcinoma was utilized; 2) a tetrazolium derivative, viz., MTS, was utilized to determine cell density.
The ADGMA compares the number of viable cells following a 3-day exposure to a test compound relative to a number of cells present at the time the test compound was added. […] The absorbance at 490 nm (A490) of the formazan derivative is proportional to the number of viable cells. The IC50 for a test compound is the concentration of compound required to reduce the final cell number to 50% of the final control cell number. If cell proliferation is inhibited, the assay further defines compounds as cytostatic (cell number after 3-day compound incubation >cell number at time of compound addition) or cytotoxic (cell number after 3-day compound incubation <cell number at time of compound addition).
The MDA-MB-435 breast carcinoma line was obtained from the American Type Culture Collection (ATCC) and used between passages 4-20 following thawing. MDA-MB-435 breast carcinoma was maintained and plated in DME/F12 medium containing 10% fetal bovine serum, 15 mM HEPES (pH=7.4), penicillin 100 units/mL, and streptomycin 100 µg/mL.
Cell lines are trypsinized and counted using a Coulter counter to determine plating densities. Cells are then plated in their respective maintenance media (100 µL/well) in 96 well plates at the following densities: MDA-MB-435, 3,000 cells/well. The number of cells plates as determined in preliminary experiments, results in cell densities of 75-90% of confluency by 4 days after plating. Initial cell densities, assayed one day after plating, are roughly 0.15-0.20 absorbance units greater than the media blank. Ninety-six well plates are seeded on day 0 and the test compounds are added on day 1. A control plate is created for each cell line that receives media only in row A and cells in row B. One day following plating, test compounds are added (in a final volume of 100 µL) to the test plates. Control plates receive 10 µL MTS mixture (prepared fresh on day of addition to cell plates at a ratio of 10 µL of a 0.92 mg/mL solution of PMS to a 190 µL of a 2 mg/mL solution of MTS) and 100 µL media. A490 of control plates is read 4h after MTS addition to determine initial cell density values for each cell line. Three days after addition of test compound, 10 µL/well of MTS mixture is added to the test plates and A490 is read 4h later. A490 values for wells containing cells are corrected for media absorbance, then normalized to initial density readings to determine percent net growth. IC50 values are determined from graphs of percent net growth as a function of compound concentration. Percent net growth is calculated as (Cell + Drug A490 - Initial A490/Cell + Drug Vehicle A490 - Initial A490).

[2] = tested on: MDA-MB-435 tumor xenografts; assay: Human tumor xenograft growth inhibition in athymic nude mouse model; type: in vivo, athymic (nu/nu) mice
Method: The histologic tumor type employed was MDA-MB-435 breast carcinoma.
Positive controls are carried out with doxorubicin administered 3 times per week i.v.
Anti-tumor activity was expressed as %T/C (Δ MTV of treated group ö Δ MTV of control group X100).

[3] = 10 µmol/kg i.v., 3X/week for 3 weeks
[4] = 33 µmol/kg i.v., 3X/week for 3 weeks
[5] = 100 µmol/kg i.v., 3X/week for 3 weeks
[6] = Mus musculus, MDA-MB-435, iv, 504 h, read-out: %T/C
[7] = Mus musculus, MDA-MB-435, iv, 504 h, 10 µmol/kg i.v., 3X/week for 3 weeks, * = statistically significant (p=<0.05), read-out: %T/C
[8] = Mus musculus, MDA-MB-435, iv, 504 h, 33 µmol/kg i.v., 3X/week for 3 weeks, * = statistically significant (p=<0.05), read-out: %T/C
[9] = 2 mg/kg i.v., 3X/week for 3 weeks (positive control)

Molecule | IC50 ([1]; Homo sapiens, MDA-MB-435, 72 h) | Dead/Total [2, 3] | Δ MTV [2, 3] | Dead/Total [2, 4] | Δ MTV [2, 4] | Dead/Total [2, 5] | Δ MTV [2, 5] | response vs control in vivo at 10 µmol/kg [2, 6] | response vs control in vivo at 33 µmol/kg [2, 6] | response vs control in vivo at 100 µmol/kg [2, 6] | solubility (Water solubility) | response vs control in vivo at 10 µmol/kg [2, 7] | response vs control in vivo at 33 µmol/kg [2, 8] | IC50 [1] | Dead/Total [2, 9] | Δ MTV [2, 9] | response vs control in vivo at 2 mg/kg ([2]; Mus musculus, MDA-MB-435, iv, 504 h, 2 mg/kg i.v., 3X/week for 3 weeks (positive control), * = statistically significant (p=<0.05), read-out: %T/C)
CO[C@@H](C(=O)N[C@H]1CC[C@@H](OC(=O)C2CCCCC2)CNC1=O)[C@H](O)[C@@H](O)[C@H](O)/C=C/C(C)(C)C [Ex. 1, (2R, 3R, 4S, 5R, 6E)-3,4,5-trihydroxy-2-methoxy-8,8-dimethyl-N-[(3S, 6R)-hexahydro-2-oxo-6-(cyclohexylcarbonyl)oxy-2H-azepin-3-yl]non-6-enamide] | 68 ± 40 nM | 0/8 | 107 mm^3 | 0/8 | 43 mm^3 | 0/8 | -11 mm^3 | 61% | 24% | -6% | 3700 µg/mL (≈ 7.42 mM) | – | – | – | – | – | –
CO[C@@H](C(=O)N[C@H]1CC[C@@H](OC(=O)C2CCCCCC2)CNC1=O)[C@H](O)[C@@H](O)[C@H](O)/C=C/C(C)(C)C [Ex. 3] | 32 ± 14 nM | 0/8 | 69 mm^3 | 0/8 | 49 mm^3 | – | – | – | – | – | – | 39% | 28% | – | – | – | –
CO[C@@H](C(=O)N[C@H]1CC[C@@H](OC(=O)CCc2cccnc2)CNC1=O)[C@H](O)[C@@H](O)[C@H](O)/C=C/C(C)(C)C [Ex. 5, (2R, 3R, 4S, 5R, 6E)-3,4,5-trihydroxy-2-methoxy-8,8-dimethyl-N-[(3S, 6R)-hexahydro-2-oxo-6-(1-oxo-3-[3-pyridyl]propoxy)-2H-azepin-3-yl]non-6-enamide] | 465 ± 204 nM | 0/8 | 130 mm^3 | 0/8 | 62 mm^3 | – | – | – | – | – | – | 92% | 44% | – | – | – | –
CO[C@@H](C(=O)N[C@H]1CC[C@@H](OC(=O)CC2CCCCC2)CNC1=O)[C@H](O)[C@@H](O)[C@H](O)/C=C/C(C)(C)C [Ex. 6, (2R, 3R, 4S, 5R, 6E)-3,4,5-trihydroxy-2-methoxy-8,8-dimethyl-N-[(3S, 6R)-hexahydro-2-oxo-6-(cyclohexylmethylcarbonyl)oxy-2H-azepin-3-yl]non-6-enamide] | 65 ± 1 nM | 0/8 | 66 mm^3 | 0/8 | 48 mm^3 | – | – | – | – | – | – | 47% | 34% | – | – | – | –
CO[C@@H](C(=O)N[C@H]1CC[C@@H](OC(=O)Cc2ccccc2)CNC1=O)[C@H](O)[C@@H](O)[C@H](O)/C=C/C(C)(C)C [Ex. 7, (2R, 3R, 4S, 5R, 6E)-3,4,5-trihydroxy-2-methoxy-8,8-dimethyl-N-[(3S, 6R)-hexahydro-2-oxo-6-(1-oxo-2-phenylethoxy)-2H-azepin-3-yl]non-6-enamide] | 262 ± 70 nM | 0/8 | 101 mm^3 | 0/8 | 61 mm^3 | – | – | – | – | – | – | 72% | 43% | – | – | – | –
CO[C@@H](C(=O)N[C@H]1CC[C@@H](OC(=O)Cc2ccc(Cl)c(Cl)c2)CNC1=O)[C@H](O)[C@@H](O)[C@H](O)/C=C/C(C)(C)C [Ex. 8, (2R, 3R, 4S, 5R, 6E)-3,4,5-trihydroxy-2-methoxy-8,8-dimethyl-N-[(3S, 6R)-hexahydro-2-oxo-6-(1-oxo-2-[3,4-dichlorophenyl]ethoxy)-2H-azepin-3-yl]non-6-enamide] | 175 ± 7 nM | 0/8 | 87 mm^3 | 0/8 | 94 mm^3 | – | – | – | – | – | – | 62% | 67% | – | – | – | –
COc1ccc(CC(=O)O[C@@H]2CC[C@H](NC(=O)[C@H](OC)[C@H](O)[C@@H](O)[C@H](O)/C=C/C(C)(C)C)C(=O)NC2)cc1 [Ex. 9, (2R, 3R, 4S, 5R, 6E)-3,4,5-trihydroxy-2-methoxy-8,8-dimethyl-N-[(3S, 6R)-hexahydro-2-oxo-6-(1-oxo-2-[4-methoxyphenyl]ethoxy)-2H-azepin-3-yl]non-6-enamide] | 335 ± 141 nM | 0/8 | 107 mm^3 | 0/8 | 68 mm^3 | – | – | – | – | – | – | 76% | 48% | – | – | – | –
CCCCCCCCCCOc1ccc(C(=O)O[C@@H]2CC[C@H](NC(=O)[C@H](OC)[C@H](O)[C@@H](O)[C@H](O)/C=C/C(C)(C)C)C(=O)NC2)cc1 [Ex. 10, (2R, 3R, 4S, 5R, 6E)-3,4,5-trihydroxy-2-methoxy-8,8-dimethyl-N-[(3S, 6R)-hexahydro-2-oxo-6-([4-n-decyloxyphenyl]carbonyl)oxy-2H-azepin-3-yl]non-6-enamide] | 8 ± 4 nM | 0/8 | 115 mm^3 | 0/8 | 4 mm^3 | – | – | – | – | – | – | 64% | 2% | – | – | – | –
CO[C@@H](C(=O)N[C@H]1CC[C@@H](OC(=O)/C=C/c2ccccc2)CNC1=O)[C@H](O)[C@@H](O)[C@H](O)/C=C/C(C)(C)C [Ex. 11] | 19 ± 5 nM | 0/8 | 135 mm^3 | 0/8 | 76 mm^3 | – | – | 76% | 43% | – | – | – | – | – | – | – | –
CCCCCCCCCCc1ccc(C(=O)O[C@@H]2CC[C@H](NC(=O)[C@H](OC)[C@H](O)[C@@H](O)[C@H](O)/C=C/C(C)(C)C)C(=O)NC2)cc1 [Ex. 12, (2R, 3R, 4S, 5R, 6E)-3,4,5-trihydroxy-2-methoxy-8,8-dimethyl-N-[(3S, 6R)-hexahydro-2-oxo-6-([4-n-decylphenyl]carbonyl)oxy-2H-azepin-3-yl]non-6-enamide] | 34 ± 46 nM | 0/8 | 78 mm^3 | 0/8 | 11 mm^3 | – | – | 52% | 7% | – | – | – | – | – | – | – | –
CO[C@@H](C(=O)N[C@H]1CC[C@@H](OC(=O)Cc2ccsc2)CNC1=O)[C@H](O)[C@@H](O)[C@H](O)/C=C/C(C)(C)C [Ex. 13, (2R, 3R, 4S, 5R, 6E)-3,4,5-trihydroxy-2-methoxy-8,8-dimethyl-N-[(3S, 6R)-hexahydro-2-oxo-6-(1-oxo-3-[3-thiophenyl]ethoxy)-2H-azepin-3-yl]non-6-enamide] | – | – | – | – | – | – | – | – | – | – | – | – | – | 300 nM | – | – | –
COc1cccc2c1C(=O)c1c(O)c3c(c(O)c1C2=O)C[C@@](O)(C(=O)CO)C[C@@H]3O[C@H]1C[C@H](N)[C@H](O)[C@H](C)O1 [doxorubicin, reference compound] | 137 ± 105 nM | – | – | – | – | – | – | – | – | – | – | – | – | – | 0/8 | 74 mm^3 | 42%
(2R, 3R, 4S, 5R, 6E)-3,4,5-trihydroxy-2-methoxy-8,8-dimethyl-N-[(3S, 6R)-hexahydro-2-oxo-6-(1-oxo-3-[3-indolyl]ethoxy)-2H-azepin-3-yl]non-6-enamide [Ex. 14] | – | – | – | – | – | – | – | – | – | – | – | – | – | 1240 ± 200 nM | – | – | –

— patent EP1131297B1, “CERTAIN SUBSTITUTED CAPROLACTAMS, PHARMACEUTICAL COMPOSITIONS CONTAINING THEM AND THEIR USE IN TREATING TUMORS” (Novartis AG, priority 1998, dated 2000)
